The source of these data is patent US8106205B2, “N[S(4-aryl-triazol-3-yl)α-mercaptoacetyl]p-amino benzoic acids as HIV reverse transcriptase inhibitors” (priority 2004, dated 2012).

pEC50, pIC50: −log10 of the molar value. Read-outs that look alike come from different tables or passages of the source.

Experiment [1] concerns wild-type (WT) HIV. The experiment is described as follows: EC50 against wild-type HIV. Format: cell-based. The conditions noted are these: for EC50: Human immunodeficiency virus 1, read-out: EC50 WT (nM).
Experiment [2] addresses wild type HIV RT (Human immunodeficiency virus type 1 group M subtype B, UniProt P04585). The experiment is described as follows: IC50 against wild-type HIV reverse transcriptase. The class given is biochemical. How it is done: Compounds of the invention were tested against the wild-type and four mutant HIV reverse transcriptases. The results are listed in Table 1 and Table 2 as EC50 (nM) and IC50 (nM). In Tables 1 and 2, A represents <50 nM, B is between 50 and 100 nM, and C is >100 nM. ND is not determined. […]

[3] abbreviates: Table 2, wild-type, read-out: EC50 WT.
The mark [4] stands for this setting: Human immunodeficiency virus 1, read-out: EC50 WT.

For orientation: pEC50 means the EC50 on a negative log10 scale, so that one unit is a factor of ten. As usually defined, the pIC50 is −log10 of the IC50, conventionally taken in molar units. Low readings indicate a high IC50, high ones a low IC50. As a reminder, the EC50 is the concentration that produces a half-maximal response.

Take `Cc1ccc2c(C)ccc(-n3c(Br)nnc3SCC(=O)Nc3ccc(S(N)(=O)=O)cc3Br)c2c1` [Compound 52]: the pEC50 in experiment [1] (setting [3]) is more than 7.30. Further, the pIC50 in experiment [2] (Table 2, wild-type RT) is more than 7.30. For the compound `CCCc1ccc(-n2c(Br)nnc2SCC(=O)Nc2ccc(S(N)(=O)=O)cc2C)c2ccccc12` [Compound 56], the pEC50 in experiment [1] (setting [3]) was more than 7.30. The pIC50 in experiment [2] (Table 2, wild-type RT) is more than 7.30. In experiment [2] (Table 2, wild-type RT), `Cc1cc(S(N)(=O)=O)ccc1NC(=O)CSc1nnc(C(F)F)n1-c1cccc2c(C#N)cccc12` [Compound 77] had a negative logarithm of the IC50 (pIC50) of less than 7.00.

For `NS(=O)(=O)c1ccc(NC(=O)CSc2nnc(Br)n2-c2ccc(C3CC3)cc2)c(Cl)c1` [Compound 46], in experiment [1] (setting [4]), the pEC50 is more than 7.30. The pIC50 in experiment [2] (Table 2, wild-type RT) is more than 7.30.

As for `NCCC[C@@H](N)C(=O)NS(=O)(=O)c1ccc(NC(=O)CSc2nnc(Br)n2-c2ccc(C3CC3)c3ccccc23)c(Cl)c1` [Compound 60], in experiment [1] (setting [3]), the pEC50 was more than 7.30. Moreover, in experiment [2] (Table 2, wild-type RT), the pIC50 was more than 7.30. In the case of `N[C@@H](CC(=O)NS(=O)(=O)c1ccc(NC(=O)CSc2nnc(Cl)n2-c2ccc(C3CC3)c3ccccc23)c(Cl)c1)C(=O)O` [Compound 59], the pEC50 in experiment [1] (setting [3]) is more than 7.30. Also, the pIC50 in experiment [2] (Table 2, wild-type RT) is more than 7.30. Regarding `CCCC(=O)NS(=O)(=O)c1ccc(NC(=O)CSc2nnc(Br)n2-c2ccc(C3CC3)c3ccccc23)c(Cl)c1` [Compound 58], the pEC50 in experiment [1] (setting [4]) was more than 7.30. The pIC50 in experiment [2] (Table 2, wild-type RT) is more than 7.30. Consider `CCCCC(=O)NS(=O)(=O)c1ccc(NC(=O)CSc2nnc(Br)n2-c2ccc(C3CC3)c3ccccc23)c(Cl)c1` [Compound 74], for which the pEC50 in experiment [1] (setting [3]) is more than 7.30. The same compound had a pIC50 in experiment [2] (Table 2, wild-type RT) of more than 7.30. For the compound `Cc1cc(C)c(-n2c(SCC(=O)Nc3ccc(S(N)(=O)=O)cc3Cl)nnc2C(F)(F)F)c2c1CCCC2` [Compound 54], the pEC50 in experiment [1] (setting [4]) was more than 7.30. Further, in experiment [2] (Table 2, wild-type RT), the pIC50 was more than 7.30. As for `NS(=O)(=O)c1ccc(NC(=O)CSc2nnc(Br)n2-c2ccc(C3CC3)cc2OC(F)(F)F)c(Cl)c1` [Compound 66], the pEC50 in experiment [1] (setting [4]) was more than 7.30. Also, the pIC50 in experiment [2] (Table 2, wild-type RT) is more than 7.30. On to `Cc1cc(C2CC2)cc(Cl)c1-n1c(Br)nnc1SCC(=O)Nc1ccc(C(=O)O)cc1Cl` [Compound 20], for which the EC50 in experiment [1] is less than 50 nM. This compound had a pIC50 in experiment [2] (Table 1, wild-type RT) of more than 7.30. With `CC(=O)NS(=O)(=O)c1ccc(NC(=O)CSc2nnc(Br)n2-c2ccc(C3CC3)c3ccccc23)c(Cl)c1` [Compound 48], the pEC50 in experiment [1] (setting [3]) is more than 7.30. Besides, the pIC50 in experiment [2] (Table 2, wild-type RT) is more than 7.30. As to `N[C@@H](CC(=O)NS(=O)(=O)c1ccc(NC(=O)CSc2nnc(Br)n2-c2ccc(C3CC3)c3ccccc23)c(Cl)c1)C(=O)O` [Compound 63], the pEC50 in experiment [1] (setting [3]) is more than 7.30. In experiment [2] (Table 2, wild-type RT), this compound gave a pIC50 of more than 7.30.

In the case of `NS(=O)(=O)c1ccc(NC(=O)CSc2nnc(Br)n2-c2ccc(C3CC3)c3ccccc23)c(Cl)c1` [Compound 45], the pEC50 in experiment [1] (setting [3]) was more than 7.30. In addition, the negative-log IC50 (pIC50) in experiment [2] (Table 2, wild-type RT) was more than 7.30. For the compound `CC(Sc1nnc(Br)n1-c1ccc(C2CC2)c2ccccc12)C(=O)Nc1ccc(S(N)(=O)=O)cc1Cl` (centres unmarked) [Compound 44], the pEC50 in experiment [1] (setting [4]) was more than 7.30. This compound also had a pIC50 in experiment [2] (Table 2, wild-type RT) of more than 7.30. As for `COc1ccc2c(C)ccc(-n3c(Br)nnc3SCC(=O)Nc3ccc(C(=O)O)cc3Cl)c2c1` [Compound 15], in experiment [1], the EC50 is less than 50 nM. In experiment [2] (Table 1, wild-type RT), this compound showed a pIC50 of more than 7.30. As to `O=C(O)CCC(=O)NS(=O)(=O)c1ccc(NC(=O)CSc2nnc(Br)n2-c2ccc(C3CC3)c3ccccc23)c(Cl)c1` [Compound 71], in experiment [1] (setting [3]), the pEC50 is 7.00 to 7.30. For the same compound, the pIC50 in experiment [2] (Table 2, wild-type RT) is more than 7.30. For `Cc1cc(S(N)(=O)=O)ccc1NC(=O)CSc1nnc(Br)n1-c1ccc(C)c2c1CCCC2` [Compound 51], the pEC50 in experiment [1] (setting [3]) was more than 7.30. Besides, in experiment [2] (Table 2, wild-type RT), the pIC50 is more than 7.30. As to `CCc1ccc(-n2c(Br)nnc2SCC(=O)Nc2ccc(S(N)(=O)=O)cc2Cl)c2ccccc12` [Compound 57], the pEC50 in experiment [1] (setting [3]) is more than 7.30. Besides, the negative logarithm of the IC50 (pIC50) in experiment [2] (Table 2, wild-type RT) was more than 7.30. For the compound `NS(=O)(=O)c1ccc(NC(=O)CSc2nnc(Br)n2-c2c(Cl)cc(C3CCC3)c3ccccc23)c(Cl)c1` (single isomer, unassigned) [Compound 68], the pEC50 in experiment [1] (setting [3]) was more than 7.30. Further, in experiment [2] (Table 2, wild-type RT), the pIC50 is more than 7.30. Consider `N#Cc1cccc2c(-n3c(SCC(=O)Nc4ccc(S(N)(=O)=O)cc4Cl)nnc3C(F)F)cccc12` [Compound 76], for which the pEC50 in experiment [1] (setting [4]) is more than 7.30. Also, the pIC50 in experiment [2] (Table 2, wild-type RT) is 7.00 to 7.30. Regarding `CCCc1ccc(-n2c(Br)nnc2SCC(=O)Nc2ccc(S(N)(=O)=O)cc2Cl)c2ccccc12` [Compound 55], the pEC50 in experiment [1] (setting [3]) is more than 7.30. In addition, the negative logarithm of the IC50 (pIC50) in experiment [2] (Table 2, wild-type RT) is more than 7.30. Take `NS(=O)(=O)c1ccc(NC(=O)CSc2nnc(Br)n2-c2c(Cl)cc(C3CCC3)c3ccccc23)c(Cl)c1` (single isomer, unassigned) [Compound 69]: the pEC50 in experiment [1] (setting [3]) is more than 7.30. This compound gave a pIC50 in experiment [2] (Table 2, wild-type RT) of more than 7.30. Turning to `Cc1cc(C2CC2)ccc1-n1c(Br)nnc1SCC(=O)Nc1ccc(S(N)(=O)=O)cc1Cl` [Compound 61], the pEC50 in experiment [1] (setting [3]) is more than 7.30. `NS(=O)(=O)c1ccc(NC(=O)CSc2nnc(Br)n2-c2ccc(C3CCC3)c3ccccc23)c(Cl)c1` [Compound 73]: in experiment [1] (setting [3]), the pEC50 was more than 7.30. Further, the pIC50 in experiment [2] (Table 2, wild-type RT) is more than 7.30. As to `Cc1cc(C2CC2)cc(Cl)c1-n1c(Br)nnc1SCC(=O)Nc1ccc(S(N)(=O)=O)cc1Cl` [Compound 70], in experiment [1] (setting [4]), the pEC50 was more than 7.30. Further, the pIC50 in experiment [2] (Table 2, wild-type RT) was more than 7.30. Regarding `N[C@@H](CCC(=O)NS(=O)(=O)c1ccc(NC(=O)CSc2nnc(Br)n2-c2ccc(C3CC3)c3ccccc23)c(Cl)c1)C(=O)O` [Compound 64], the pEC50 in experiment [1] (setting [3]) was more than 7.30. Further, the pIC50 in experiment [2] (Table 2, wild-type RT) is more than 7.30.

As to `COCCC(=O)NS(=O)(=O)c1ccc(NC(=O)CSc2nnc(Br)n2-c2ccc(C3CC3)c3ccccc23)c(Cl)c1` [Compound 67], the pEC50 in experiment [1] (setting [4]) was more than 7.30. The compound further showed a pIC50 in experiment [2] (Table 2, wild-type RT) of more than 7.30. Take `CCc1ccc(-n2c(Br)nnc2SCC(=O)Nc2ccc(S(N)(=O)=O)cc2Cl)c2c1CCCC2` [Compound 50]: the pEC50 in experiment [1] (setting [3]) was more than 7.30. This compound also gave a pIC50 in experiment [2] (Table 2, wild-type RT) of more than 7.30. As for `Cc1cc(C)c2ccccc2c1-n1c(CF)nnc1SCC(=O)Nc1ccc(S(N)(=O)=O)cc1Cl` [Compound 53], the pEC50 in experiment [1] (setting [3]) is more than 7.30. Moreover, the pIC50 in experiment [2] (Table 2, wild-type RT) is more than 7.30.

Take `Cc1cc(S(N)(=O)=O)ccc1NC(=O)CSc1nnc(Br)n1-c1ccc(C2CCC2)c2ccccc12` [Compound 72]: the pEC50 in experiment [1] (setting [4]) was more than 7.30. For the same compound, the negative-log IC50 (pIC50) in experiment [2] (Table 2, wild-type RT) is more than 7.30. As for `CC(=O)OC(C)OC(=O)NS(=O)(=O)c1ccc(NC(=O)CSc2nnc(Br)n2-c2ccc(C3CC3)c3ccccc23)c(Cl)c1` (centres unmarked) [Compound 47], the pEC50 in experiment [1] (setting [3]) is more than 7.30. The compound also had a pIC50 in experiment [2] (Table 2, wild-type RT) of more than 7.30. Turning to `CCCCCC(=O)NS(=O)(=O)c1ccc(NC(=O)CSc2nnc(Br)n2-c2ccc(C3CC3)c3ccccc23)c(Cl)c1` [Compound 75], the pEC50 in experiment [1] (setting [3]) is more than 7.30. Further, in experiment [2] (Table 2, wild-type RT), the pIC50 was more than 7.30. For the compound `NCCC(N)C(=O)NS(=O)(=O)c1ccc(NC(=O)CSc2nnc(Br)n2-c2ccc(C3CC3)c3ccccc23)c(Cl)c1` (centres unmarked) [Compound 62], the pEC50 in experiment [1] (setting [3]) is more than 7.30. This compound showed a pIC50 in experiment [2] (Table 2, wild-type RT) of more than 7.30. `NS(=O)(=O)c1ccc(NC(=O)CSc2nnc(Cl)n2-c2ccc(C3CC3)c3ccccc23)c(Cl)c1` [Compound 65]: the pEC50 in experiment [1] (setting [3]) is more than 7.30. The pIC50 in experiment [2] (Table 2, wild-type RT) is more than 7.30.
